Reference: US20230000813A1, “COMPOUND FOR THE TREATMENT OF BOVINE OR SWINE RESPIRATORY DISEASE” (Intervet Inc., priority 2016, published 2023)
≈ marks a conversion by molar mass, not a printed value. Like-named read-outs stand apart in the source and are kept apart here.

Columns and labels:
Experiment in all cases: MIC, broth-microdilution (CLSI VET01-A4)
Type in all cases: cell-based
[1] = system: Mannheimia haemolytica MH 13093 (XB0472-6014.1, BRD field isolate)
Method: (§1) The Minimum inhibitory concentrations (MIC) of compounds according to the invention for a number of veterinary bacterial pathogens were determined by the broth-microdilution method according to CLSI document VET01-A4.
(§2) Microdilution trays containing a doubling dilution series of the test compound were used for the tests. The MIC results were interpreted according to the CLSI documents VET01-S3. The lowest concentration of compound at which no visible growth (i.e. no turbidity) detected by the unaided eye was recorded as the MIC.

[2] = system: Mannheimia haemolytica MH 13065 (XB0446-6003.9, BRD field isolate)
Method: as §1, §2

[3] = system: Pasteurella multocida PM 6391 (ATCC 43137, reference strain); details: Pasteurella multocida PM 6391; for MIC: read-out: MIC PM 6391
Method: as §1, §2
(§3) The Minimum inhibitory concentrations (MIC) of compounds according to the invention were determined by the broth-microdilution method according to CLSI document VET01-A4.
(§4) Microdilution trays containing a doubling dilution series of the test compound were used for the tests.
(§5) The MIC results were interpreted according to the CLSI documents VET01-S3. The lowest concentration of compound at which no visible growth (i.e. no turbidity) detected by the unaided eye was recorded as the MIC.

[4] = system: Mannheimia haemolytica MH 10720 (154, BRD field isolate); details: Mannheimia haemolytica MH 10720; for MIC: read-out: MIC MH 10720
Method: as §1, §2, §3, §4, §5

[5] = system: Mannheimia haemolytica MH 12587 (1071, BRD field isolate, macrolide-resistance: erm+, E+); details: Mannheimia haemolytica MH 12587, macrolide-resistant
Method: as §1, §2, §3, §4, §5

[6] = system: Pasteurella multocida PM 12080 (IV102277-0093, BRD field isolate); details: Pasteurella multocida PM 12080; for MIC: read-out: MIC PM 12080
Method: as §1, §2, §3, §4, §5

[7] = system: Mannheimia haemolytica MH 6357 (M7/2, reference strain, cattle infection strain); details: Mannheimia haemolytica MH 6357; read-out: MIC MH 6357
Method: as §1, §2, §3, §4, §5

[8] = system: Mannheimia haemolytica MH 6374 (ATCC 33396, reference strain); details: Mannheimia haemolytica MH 6374, read-out: MIC MH 6374
Method: as §1, §2, §3, §4, §5

[9] = system: Pasteurella multocida PM 6267 (P 2225 (L386), reference strain, mouse infection strain); details: Pasteurella multocida PM 6267; read-out: MIC PM 6267
Method: as §1, §2, §3, §4, §5

SMILES: CC(C)(N)C(NC(=O)c1ccc(C#Cc2ccc(CNCc3ccco3)s2)cc1)C(=O)NO (centres unmarked) [Compound 535]
- MIC [1]: 0.8 µM (≈ 0.373 µg/mL)
- MIC [2]: 0.4 µM (≈ 0.187 µg/mL)
- MIC PM 6391 [3]: <=0.1 μM
- MIC MH 10720 [4]: <=0.1 μM
- MIC MH 12587 [5]: 0.8 µM (≈ 0.373 µg/mL)
- MIC PM 12080 [6]: <=0.1 μM
- MIC [7]: 0.8 µM (≈ 0.373 µg/mL)
- MIC [8]: 0.2 µM (≈ 0.0933 µg/mL)
- MIC [9]: 0.8 µM (≈ 0.373 µg/mL)

SMILES: CC(C)(N)C(NC(=O)c1ccc(C#Cc2ccc(CNCc3ccccn3)s2)cc1)C(=O)NO (centres unmarked) [Compound 534]
- MIC [1]: 1.6 µM (≈ 0.764 µg/mL)
- MIC [2]: 0.8 µM (≈ 0.382 µg/mL)
- MIC PM 6391 [3]: <=0.1 μM
- MIC [4]: 0.2 µM (≈ 0.0955 µg/mL)
- MIC MH 12587 [5]: 1.6 µM (≈ 0.764 µg/mL)
- MIC PM 12080 [6]: <=0.1 μM
- MIC [7]: 0.8 µM (≈ 0.382 µg/mL)
- MIC [8]: 0.8 µM (≈ 0.382 µg/mL)
- MIC [9]: 1.6 µM (≈ 0.764 µg/mL)

SMILES: CC(C)(N)C(NC(=O)c1ccc(C#Cc2ccc(CNC3CC3)s2)cc1)C(=O)NO (centres unmarked) [C. 521]
- MIC [1]: 0.8 µM (≈ 0.341 µg/mL)
- MIC [2]: 1.6 µM (≈ 0.682 µg/mL)
- MIC PM 6391 [3]: <=0.1 μM
- MIC MH 10720 [4]: <=0.1 μM
- MIC MH 12587 [5]: 0.8 µM (≈ 0.341 µg/mL)
- MIC PM 12080 [6]: <=0.1 μM
- MIC [7]: 0.8 µM (≈ 0.341 µg/mL)
- MIC [8]: 0.4 µM (≈ 0.171 µg/mL)
- MIC [9]: 0.8 µM (≈ 0.341 µg/mL)

SMILES: CC(C)(N)C(NC(=O)c1ccc(C#Cc2ccc([N+](=O)[O-])cc2)cc1)C(=O)NO (centres unmarked) [C. 552, N-[2-amino-1-(hydroxycarbamoyl)-2-methyl-propyl]-4-[2-(4-nitrophenyl)ethynyl]benzamide]
- MIC [1]: 0.8 µM (≈ 0.317 µg/mL)
- MIC [2]: 0.8 µM (≈ 0.317 µg/mL)
- MIC ([3]; ATCC43137): ≤ 0.1 µM
- MIC [4]: 0.2 µM (≈ 0.0793 µg/mL)
- MIC [6]: ≤ 0.1 µM
- MIC [7]: 0.8 µM (≈ 0.317 µg/mL)
- MIC ([8]; ATCC33396): 0.2 µM (≈ 0.0793 µg/mL)
- MIC [9]: 0.8 µM (≈ 0.317 µg/mL)

SMILES: CC(C)(N)C(NC(=O)c1ccc(C#Cc2ccc(CNCc3cccnc3)s2)cc1)C(=O)NO (centres unmarked) [Compound 532]
- MIC [1]: 1.6 µM (≈ 0.764 µg/mL)
- MIC [2]: 0.8 µM (≈ 0.382 µg/mL)
- MIC PM 6391 [3]: <=0.1 μM
- MIC [4]: 0.2 µM (≈ 0.0955 µg/mL)
- MIC MH 12587 [5]: 1.6 µM (≈ 0.764 µg/mL)
- MIC PM 12080 [6]: <=0.1 μM
- MIC [7]: 1.6 µM (≈ 0.764 µg/mL)
- MIC [8]: 0.8 µM (≈ 0.382 µg/mL)
- MIC [9]: 1.6 µM (≈ 0.764 µg/mL)

SMILES: CC(C)(N)C(NC(=O)c1ccc(C#Cc2ccc(CNCc3ccccc3)s2)cc1)C(=O)NO (centres unmarked) [Compound 525]
- MIC [1]: 0.8 µM (≈ 0.381 µg/mL)
- MIC [2]: 0.8 µM (≈ 0.381 µg/mL)
- MIC [3]: 0.2 µM (≈ 0.0953 µg/mL)
- MIC [4]: 0.2 µM (≈ 0.0953 µg/mL)
- MIC MH 12587 [5]: 1.6 µM (≈ 0.763 µg/mL)
- MIC PM 12080 [6]: <=0.1 μM
- MIC [7]: 0.8 µM (≈ 0.381 µg/mL)
- MIC [8]: 0.4 µM (≈ 0.191 µg/mL)
- MIC [9]: 1.6 µM (≈ 0.763 µg/mL)

SMILES: CC(C)(N)C(NC(=O)c1ccc(C#Cc2ccc(CNCc3ccnc(Cl)c3)s2)cc1)C(=O)NO (centres unmarked) [Compound 533]
- MIC [1]: 0.8 µM (≈ 0.41 µg/mL)
- MIC [2]: 0.8 µM (≈ 0.41 µg/mL)
- MIC [3]: 0.2 µM (≈ 0.102 µg/mL)
- MIC [4]: 0.2 µM (≈ 0.102 µg/mL)
- MIC MH 12587 [5]: 1.6 µM (≈ 0.819 µg/mL)
- MIC PM 12080 [6]: <=0.1 μM
- MIC [7]: 0.8 µM (≈ 0.41 µg/mL)
- MIC [8]: 0.8 µM (≈ 0.41 µg/mL)
- MIC [9]: 1.6 µM (≈ 0.819 µg/mL)

SMILES: CC(C)(N)C(NC(=O)c1ccc(C#Cc2ccc(CNCc3cccs3)nc2)cc1)C(=O)NO (racemic) [Compound 549]
- MIC [1]: 1.6 µM (≈ 0.764 µg/mL)
- MIC [2]: 0.8 µM (≈ 0.382 µg/mL)
- MIC PM 6391 [3]: <=0.1 μM
- MIC [4]: 0.4 µM (≈ 0.191 µg/mL)
- MIC MH 12587 [5]: 1.6 µM (≈ 0.764 µg/mL)
- MIC PM 12080 [6]: <=0.1 μM
- MIC [7]: 0.8 µM (≈ 0.382 µg/mL)
- MIC [8]: 0.4 µM (≈ 0.191 µg/mL)
- MIC [9]: 0.8 µM (≈ 0.382 µg/mL)

SMILES: COCCNCc1ccc(C#Cc2ccc(C(=O)NC(C(=O)NO)C(C)(C)N)cc2)s1 (centres unmarked) [Compound 523]
- MIC [1]: 1.6 µM (≈ 0.711 µg/mL)
- MIC [2]: 1.6 µM (≈ 0.711 µg/mL)
- MIC [3]: 0.2 µM (≈ 0.0889 µg/mL)
- MIC [4]: 0.4 µM (≈ 0.178 µg/mL)
- MIC MH 12587 [5]: 1.6 µM (≈ 0.711 µg/mL)
- MIC PM 12080 [6]: <=0.1 μM
- MIC [7]: 1.6 µM (≈ 0.711 µg/mL)
- MIC [8]: 0.8 µM (≈ 0.356 µg/mL)

SMILES: CC(C)(N)C(NC(=O)c1ccc(C#Cc2ccc(N)cc2)cc1)C(=O)NO (centres unmarked) [C. 553, N-(3-amino-1-(hydroxyamino)-3-methyl-1-oxobutan-2-yl)-4-((4-aminophenyl)ethynyl)benzamide]
- MIC [1]: 0.8 µM (≈ 0.293 µg/mL)
- MIC [2]: 1.6 µM (≈ 0.586 µg/mL)
- MIC ([3]; ATCC43137): ≤ 0.1 µM
- MIC [4]: 0.2 µM (≈ 0.0733 µg/mL)
- MIC [6]: ≤ 0.1 µM
- MIC [7]: 0.8 µM (≈ 0.293 µg/mL)
- MIC ([8]; ATCC33396): 0.4 µM (≈ 0.147 µg/mL)
- MIC [9]: 0.8 µM (≈ 0.293 µg/mL)

SMILES: CC(C)(N)C(NC(=O)c1ccc(C#Cc2ccc(CNCc3ccco3)cc2)cc1)C(=O)NO (centres unmarked) [C. 518]
- MIC [1]: 0.8 µM (≈ 0.368 µg/mL)
- MIC [2]: 0.8 µM (≈ 0.368 µg/mL)
- MIC MH 10720 [4]: <=0.1 μM
- MIC MH 12587 [5]: 0.8 µM (≈ 0.368 µg/mL)
- MIC PM 12080 [6]: <=0.1 μM
- MIC [7]: 0.8 µM (≈ 0.368 µg/mL)
- MIC [8]: 0.4 µM (≈ 0.184 µg/mL)
- MIC [9]: 0.8 µM (≈ 0.368 µg/mL)
